This is an account of results in patent publication US11143585B2, “Photoelectrical device for concentration detection, method for concentration detection thereof and method for testing an antibiotic susceptibility on bacteria” (priority 2018, dated 2021).

The subject of experiment [1] is oxacillin-resistant Staphylococcus aureus (ORSA). In words: Antibiotic effectiveness test with the photoelectrical device, fluid sample containing ORSA and oxacillin. Type of experiment: cell-based. As for the experimental part: (§1) FIG. 3A is an electric current-voltage curve obtained by the photoelectrical device of the present invention for detecting an effectiveness of an antibiotic on bacteria. In the method for testing the effectiveness of an antibiotic on bacteria of the present invention, firstly, a fluid sample containing bacteria and an antibiotic is prepared, wherein the bacterial concentration of the fluid sample is between 10^4 and 10^5 CFU/ml. Use FIG. 3A as an example, the fluid sample to be detected contains an antibiotic: oxacillin, and bacteria: oxacillin-resistant Staphylococcus aureus (ORSA, hereinafter as ORSA for short). There is also another control sample used as a control group containing oxacillin and oxacillin-susceptible Staphylococcus aureus (OSSA, hereinafter as OSSA for short). In FIG. 3A, curve B3 is the background information and is drawn by detecting a sterile fluid sample. Curve OS31 is drawn by detecting the control sample containing OSSA and oxacillin, and curve OR31 is drawn by detecting a fluid sample containing ORSA and oxacillin.
Both the above fluid sample and the control sample are added with oxacillin of a concentration of about 4 μg/ml in the tryptic soy broth (TSB) to incubate OSSA and ORSA respectively, and both of them respectively contain OSSA and ORSA with a bacterial concentration of 6×10^4 CFU/ml. After preparing the above fluid sample and the control sample, the bacteria (ORSA) in the fluid sample and the bacteria (OSSA) in the control sample are incubated, wherein the time for incubating the bacteria can be more than 3 hours, for example, 4 hours. […]
(§2) FIG. 3B is a diagram illustrating the relationship between the change rate of electric current and the incubation time measured on the photoelectric device 100 after being incubated for different periods of time based on FIG. 3A, wherein the vertical axis represents the change rate of electric current and its definition is the same as the above mathematical formula (1), while the horizontal axis represents the incubation time (also referred to as incubation period). […]

Experiment [2] deals with oxacillin-susceptible Staphylococcus aureus (OSSA). In words: Antibiotic effectiveness test with the photoelectrical device, control sample containing OSSA and oxacillin. The class given is cell-based. The settings on record: oxacillin about 4 μg/ml in TSB, initial 6×10^4 CFU/ml. As for the experimental part: as §1, with “Curve OS31 is drawn by detecting the control sample containing OSSA and oxacillin, and curve OR31 is drawn by detecting a fluid sample containing ORSA and oxacillin.” left out
as §2

Consider `Cc1onc(-c2ccccc2)c1C(=O)N[C@@H]1C(=O)N2[C@@H]1SC(C)(C)[C@@H]2C(=O)O` [oxacillin], for which, in experiment [1] (oxacillin about 4 μg/ml in TSB, initial 6×10^4 CFU/ml, after 4 hours of incubation time, FIG. 3B curve OR32), the “change rate of electric current of the ORSA fluid sample” value was “more than 10%”. The “inhibition of ORSA reproduction (conclusion from change rate of electric current)” value in experiment [1] (oxacillin about 4 μg/ml in TSB, initial 6×10^4 CFU/ml, increasing incubation time) was “not inhibited by oxacillin”. In addition, in experiment [1] (oxacillin about 4 μg/ml, after more than 3 hours of incubation period, FIG. 3B), the “difference between the change rates of electric current of the ORSA fluid sample and the OSSA control sample” value was no less than 4%. Moreover, the “change in the change rate of electric current of the OSSA sample as incubation time increases” value in experiment [2] (FIG. 3B curve OS32) is on record as “no significant change”. Besides, in experiment [2] (increasing incubation time), the “inhibition of OSSA reproduction (conclusion from change rate of electric current)” value is “inhibited by oxacillin and difficult to reproduce”.
